Test results published in ChEMBL document CHEMBL5532670, “Discovery of Tetrahydropyrazolopyrazine Derivatives as Potent and Selective MYT1 Inhibitors for the Treatment of Cancer” (J Med Chem, 2024).

Tests used:
[1] = in vivo; conditions: Sprague-Dawley, rat, iv, 1 mg/kg
[2] = Oral bioavailability in Sprague-Dawley rat at 10 mg/kg measured after 24 hrs; format: ADME, organism-based; conditions: in vivo
[3] = in vivo; conditions: CD-1, mouse, iv, 1 mg/kg
[4] = Cmax in CD-1 mouse at 10 mg/kg, po measured after 24 hrs; format: ADME, organism-based; conditions: in vivo
[5] = AUC (0 to t) in CD-1 mouse at 10 mg/kg, po measured after 24 hrs; format: ADME, organism-based; conditions: in vivo
[6] = in vitro; conditions: mouse, hepatocytes
[7] = Cmax in Sprague-Dawley rat at 10 mg/kg, po measured after 24 hrs; format: ADME, organism-based; conditions: in vivo
[8] = in vitro; conditions: human, Caco-2
[9] = MRT (0 to t) in Sprague-Dawley rat at 1 mg/kg, iv measured after 24 hrs; format: ADME, organism-based; conditions: in vivo
[10] = in vivo; conditions: Sprague-Dawley, rat, iv, 1 mg/kg; remark: listed apart in the source
[11] = MRT (0 to t) in CD-1 mouse at 1 mg/kg, iv measured after 24 hrs; format: ADME, organism-based; conditions: in vivo
[12] = in vivo; conditions: CD-1, mouse, iv, 1 mg/kg; remark: listed apart in the source
[13] = Tmax in Sprague-Dawley rat at 10 mg/kg, po measured after 24 hrs; format: ADME, organism-based; conditions: in vivo
[14] = Tmax in CD-1 mouse at 10 mg/kg, po measured after 24 hrs; format: ADME, organism-based; conditions: in vivo
[15] = Oral bioavailability in CD-1 mouse at 10 mg/kg measured after 24 hrs; format: ADME, organism-based; conditions: in vivo
[16] = AUC (0 to t) in Sprague-Dawley rat at 5 mg/kg, po measured after 24 hrs; format: ADME, organism-based; conditions: in vivo
[17] = in vivo; conditions: Sprague-Dawley, rat, po, 5 mg/kg
[18] = in vivo; conditions: Sprague-Dawley, rat, po, 5 mg/kg; remark: listed apart in the source
[19] = AUC (0 to t) in CD-1 mouse at 5 mg/kg, po measured after 24 hrs; format: ADME, organism-based; conditions: in vivo
[20] = in vivo; conditions: Sprague-Dawley, rat, po, 5 mg/kg; remark: listed apart in the source
[21] = in vivo; conditions: CD-1, mouse, po, 5 mg/kg
[22] = in vivo; conditions: CD-1, mouse, po, 5 mg/kg; remark: listed apart in the source
[23] = Drug concentration in mouse plasma assessed as free fraction administered for 21 days and measured after 8 hrs post dose; format: ADME; conditions: 504 h, time 21 day
[24] = in vivo; conditions: CD-1, mouse, po, 5 mg/kg; remark: listed apart in the source
[25] = AUC (0 to t) in CD-1 mouse at 30 mg/kg, po measured after 24 hrs; format: ADME, organism-based; conditions: in vivo
[26] = Oral bioavailability in Sprague-Dawley rat at 20 mg/kg measured after 24 hrs; format: ADME, organism-based; conditions: in vivo
[27] = Oral bioavailability in CD-1 mouse at 30 mg/kg measured after 24 hrs; format: ADME, organism-based; conditions: in vivo
[28] = Tmax in CD-1 mouse at 30 mg/kg, po measured after 24 hrs; format: ADME, organism-based; conditions: in vivo
[29] = Cmax in CD-1 mouse at 30 mg/kg, po measured after 24 hrs; format: ADME, organism-based; conditions: in vivo
[30] = Tmax in Sprague-Dawley rat at 20 mg/kg, po measured after 24 hrs; format: ADME, organism-based; conditions: in vivo
[31] = Cmax in Sprague-Dawley rat at 20 mg/kg, po measured after 24 hrs; format: ADME, organism-based; conditions: in vivo

`Cc1ccc(O)c(C)c1-n1c(N)c(C(=O)N2CCn3nccc3C2)c2nc(C)c(C)nc21` showed a clearance at 24 h [1] of 46.8 mL/min/kg, a bioavailability [2] of 50.9% and a clearance at 24 h [3] of 149 mL/min/kg. For the same compound, the Cmax [4] was 902 ng/mL, the AUC(0-t) at 24 h [5] was 330 ng·h/mL and the CLhep predicted [6] was 85.4 mL/min/kg. For the same compound, the Cmax [7] was 1410 ng/mL, the Papp A→B at 2 h [8] was 1.48 ×10⁻⁶ cm/s and the MRT last at 24 h [9] was 24.6 min. The Vd at 24 h [10] was 1.2 L/kg, the MRT last at 24 h [11] was 6.6 min and the Vd at 24 h [12] was 0.99 L/kg. The Tmax [13] was 15 min, the Tmax [14] was 15 min and the bioavailability [15] was 29.3%.

Work on `Cc1cc2c(C(N)=O)c(N)n(-c3c(C)ccc(O)c3C)c2nc1C` [LUNRESERTIB] yielded an AUC(0-t) at 24 h [16] of 1720 ng·h/mL, a clearance at 24 h [1] of 37.6 mL/min/kg and a clearance at 24 h [3] of 85.7 mL/min/kg. The Tmax at 24 h [17] was 15 min, the bioavailability at 24 h [18] was 78% and the AUC(0-t) at 24 h [19] was 539 ng·h/mL. The CLhep predicted [6] was 79.4 mL/min/kg, the Cmax at 24 h [20] was 1360 ng/mL and the Papp A→B at 2 h [8] was 11 ×10⁻⁶ cm/s. It also gave a bioavailability at 24 h [21] of 55.8%, a Cmax at 24 h [22] of 511 ng/mL and an MRT last at 24 h [9] of 33.6 min. The Vd at 24 h [10] was 1.4 L/kg, the MRT last at 24 h [11] was 23.4 min and the Vd at 24 h [12] was 2.3 L/kg. The “Cp(f)” value [23] was 39.3 nM and the Tmax at 24 h [24] was 24 min.

`Cc1ccc(O)c(C)c1-n1c(N)c(C(=O)N2CCn3nccc3C2)c2nc(C3CC3)c(C)nc21` showed a clearance at 24 h [1] of 49.1 mL/min/kg, an AUC(0-t) at 24 h [25] of 2310 ng·h/mL and a clearance at 24 h [3] of 122 mL/min/kg. The bioavailability [26] was 55.9%, the CLhep predicted [6] was 83.5 mL/min/kg and the Papp A→B at 2 h [8] was 1 ×10⁻⁶ cm/s. For the same compound, the MRT last at 24 h [9] was 28.2 min, the Vd at 24 h [10] was 1.4 L/kg and the MRT last at 24 h [11] was 10.2 min. For the same compound, the bioavailability [27] was 55.8%, the Vd at 24 h [12] was 1.3 L/kg and the Tmax [28] was 15 min. For the same compound, the Cmax [29] was 1800 ng/mL, the “Cp(f)” value [23] was 60.7 nM and the Tmax [30] was 40.2 min. It also gave a Cmax [31] of 1780 ng/mL.
